Measured values published in BindingDB's records for doi:10.1111/j.1476-5381.1981.tb10994.x (Royal Postgraduate Medical School, 1981).
“And” between values parts separate entries of the source, which are not always exact repeats. Equal values may be shown once.

Target: Prostacyclin receptor (Homo sapiens, UniProt P43119)
Sequence (P43119 whole entry): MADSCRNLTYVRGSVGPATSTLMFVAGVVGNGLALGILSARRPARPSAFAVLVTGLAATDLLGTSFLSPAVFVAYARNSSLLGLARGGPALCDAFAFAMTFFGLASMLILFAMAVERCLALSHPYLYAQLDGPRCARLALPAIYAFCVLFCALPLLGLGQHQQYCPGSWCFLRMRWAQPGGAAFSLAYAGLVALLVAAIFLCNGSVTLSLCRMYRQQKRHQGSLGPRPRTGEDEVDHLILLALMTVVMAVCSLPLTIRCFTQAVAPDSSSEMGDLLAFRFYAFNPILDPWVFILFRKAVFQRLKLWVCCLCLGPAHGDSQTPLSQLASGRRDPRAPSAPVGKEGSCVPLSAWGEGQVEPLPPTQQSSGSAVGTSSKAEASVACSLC

Row | Compound | Ki
1 | CCCCC[C@H](O)CC[C@H]1[C@H](O)CC(=O)[C@@H]1CCCCCCC(=O)O [CAS_19313-28-1] | 0.315 µM
2 | CCCCC[C@H](O)/C=C/[C@@H]1[C@H]2C/C(=C\CCCC(=O)O)C[C@H]2C[C@H]1O | 0.0166 µM
3 | CCCCCC(=O)CC[C@H]1[C@H](O)CC(=O)[C@@H]1C/C=C\CCCC(=O)O [13,14-DIHYDRO-15-KETO PROSTAGLANDIN E2] | 8.41 µM and > 10 µM
4 | CCCCC[C@H](O)/C=C/C1[C@H](O)C[C@H](O)[C@@H]1C/C=C\CCCC(=O)O (stereo partly drawn) [(Z)-7-[(1R,3R,5S)-3,5-Dihydroxy-2-((E)-(S)-3-hydroxy-oct-1-enyl)-cyclopentyl]-hept-5-enoic acid] | > 10 µM
5 | O=C(O)CCC/C=C\C[C@H]1C(=O)C[C@@H](O)[C@@H]1/C=C/[C@@H](O)CCc1ccccc1 [17-PHENYL TRINOR PROSTAGLANDIN E2] | 4.37 µM
6 | CCCCC[C@H](O)/C=C/[C@@H]1[C@@H](CC(=O)CCC(=O)O)[C@@H](O)C[C@H]1O [2,3-dinor-6-ketoprostaglandin F1alpha] | > 10 µM
7 | CCCCC[C@@H](O)/C=C/[C@H]1[C@H](O)CC(=O)[C@@H]1C/C=C\CCCC(=O)O | > 10 µM
8 | CCCCCC(O)C=CC1C(O)CC2OC(CCCCC(=O)O)CC21 (stereo not drawn) [CAS_162981] | 7.35 µM
9 | CCCCC[C@@H](O)/C=C/[C@H]1[C@H](O)CC(=O)[C@@H]1CCCCCCC(=O)O | 0.137 µM
10 | CCCCCC(O)C=CC1C(O)CC(O)C1CCCCCCC(=O)O (stereo not drawn) [NSC_5280939] | > 10 µM
11 | CCCCC[C@H](O)/C=C/[C@H]1[C@H](O)CC(=O)[C@@H]1C/C=C/CCCC(=O)O [(E)-7-((1R,2R,3R)-3-hydroxy-2-((S,E)-3-hydroxyoct-1-enyl)-5-oxocyclopentyl)hept-5-enoic acid] | 0.735 µM
12 | CCCCC[C@H](O)/C=C/[C@H]1[C@H](O)CC(=O)[C@@H]1C/C=C\CCCC(=O)O [DINOPROSTONE] | > 10 µM
13 | CCCCC[C@H](O)/C=C/C1[C@H](O)CC(=O)[C@H]1CCCCCCC(=O)O (stereo partly drawn) [8-ISO PROSTAGLANDIN E1] | 0.735 µM
